Results as given in US20240109843A1, “BENZALDEHYDE COMPOUNDS WITH DIRECT POLYMER DESTABILIZING EFFECTS TO TREAT SICKLE CELL DISEASE” (VIRGINIA COMMONWEALTH UNIVERSITY, priority 2018, published 2024).

What was measured:
[1] = system: RBCs from donors with homozygous SCD; assay: Oxygen-independent sickle inhibition in SS blood suspensions under anoxia (100% nitrogen); format: cell-based, human; details: anoxia
In short: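 After room-air re-oxygenation for 15 min to reverse sickling, SS blood suspensions were held under 100% nitrogen for 1 h (screening) or up to 2.5 h (time course), with aliquots fixed at set intervals. Sickled versus non-sickled cells were counted by bright-field microscopy to calculate sickle inhibition.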

[2] = ADME / bioavailability assessment; details: in vivo
[3] = target: T1, intracellular Hb (Mus musculus, UniProt P01942); assay: In vivo modification of intracellular Hb in wild-type mice; design: species or system C57BL/6 mice; details: IP 150 mg/kg, 30% PEG300, 6 h
T1 construct: from tissue; host or cells: blood (red cell lysates) of dosed C57BL/6 mice
T1 sequence (P01942 2-142 limits assumed): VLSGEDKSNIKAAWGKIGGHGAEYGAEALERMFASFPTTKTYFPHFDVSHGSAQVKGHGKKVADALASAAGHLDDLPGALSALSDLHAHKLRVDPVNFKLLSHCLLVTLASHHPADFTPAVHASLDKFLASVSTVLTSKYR
T1 sequence (P02088 2-147 partner limits assumed): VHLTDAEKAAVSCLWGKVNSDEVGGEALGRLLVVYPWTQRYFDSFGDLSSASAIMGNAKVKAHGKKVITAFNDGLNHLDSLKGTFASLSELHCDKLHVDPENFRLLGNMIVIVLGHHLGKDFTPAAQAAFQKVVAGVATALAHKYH
Experimental: We tested in vivo pharmacologic (pharmacodynamics) effects of select PP compounds in C57BL/6 mice. The animals were treated with a single intraperitoneal (IP) (150 mg/kg body weight) dose of PP6, PP10, PP14, and TD7, which were formulated with 30% PEG300. Blood samples were obtained prior to treatment (0) and 1, 3 and 6 h post-treatment, via submandibular bleeding, and subjected to hemolysis using standard methods. Clarified lysates, free of cell debris and red blood cell ghosts were analyzed by cation-exchange HPLC to determine the levels of drug-modified hemoglobin (adducts); and to conduct oxygen equilibrium studies to determine degrees of shift in p50 values using methodologies described earlier for in vitro studies on human samples. In a subsequent follow-up experiment, a new excipient obtained from Catalent Pharma Solutions was also used to formulate PP14 and used for a single intraperitoneal (IP) and oral (150 mg/kg body weight) dose. Blood samples were obtained prior to treatment (0) and 1, 3 or 5 h post-treatment, via submandibular bleeding, and used to determine the levels of drug-modified hemoglobin (adducts); and to conduct oxygen equilibrium studies to determine degrees of shift in p50 values as described above.

[4] = system: sickle red blood cells; assay: Antisickling study with human sickle blood under 2.5% oxygen; format: cell-based; details: Homo sapiens, Erythrocyte, sickle RBCs, 2.5% oxygen, read-out: sickling inhibition
Experimental: Blood suspensions from subjects with homozygous SCD (resuspended in Hemox™ buffer to a final hematocrit 20%) were incubated under air in the absence or presence of the compounds (0.5 mM, 1 mM and 2 mM) at 37° C. for 1 h to ensure that binding had attained equilibrium. The suspensions were then incubated under hypoxic conditions (2.5% oxygen/97.5% nitrogen) at 37° C. for 1 h. Aliquot samples were fixed with 2% glutaraldehyde solution without exposure to air, and then subjected to microscopic morphological analysis of bright field images (at 40× magnification) of single layer cells on an Olympus BX40 microscope fitted with an Infinity Lite B camera (Olympus), and the coupled Image Capture software. The residual samples were washed in phosphate-buffer saline, and hemolyzed in hypotonic lysis buffer for subsequent Hb-modification and oxygen equilibrium analyses.
The studies described above were conducted using normal whole blood. Next, we investigated whether the improvement in Hb oxygen affinity and the compounds sustained activity also translated to similar effects in SS blood from SCD patients. […] At 1 mM, PP8 and PP9 inhibited nearly 100% of sickling, while PP2, PP6, PP14 inhibited sickling by more than 70%. […] It is clear that the modifications of the present compounds has led to significant improvement in antisickling activity.

[5] = target: T2, Hb (Homo sapiens, UniProt P69905); assay: Oxygen equilibrium curve (OEC) studies with normal whole blood; format: cell-based; design: Hemoglobin modification, studies using non-sickling AA blood; from tissue; host or cells: non-sickling (AA) human blood, red blood cells; details: normal whole blood, 0.5, 1, 2 mM
Experimental: Oxygen equilibrium curve (OEC) studies to determine the effect of the compounds on Hb affinity for oxygen were conducted following standard procedure. Whole blood (30% hematocrit) was incubated in the absence or presence of compounds (0.5 mM, 1.0 mM and 2.0 mM) solubilized in DMSO. […] After equilibration, the sample was removed via syringe and aspirated into an ABL 700 series table top automated blood gas analyzer (Radiometer America, Inc., Westlake, OH) to determine total hemoglobin (tHb), hematocrit (Hct), pH, pCO2, partial pressure of oxygen (pO2), and the Hb-O2 saturation (sO2) values. The measured values of pO2 and sO2 at each oxygen saturation level were then subjected to nonlinear regression analysis using the software Scientist (Micromath, Salt Lake City UT) with the following equation: […]
Aromatic aldehydes are known to prevent hypoxia-induced Hb S polymerization by increasing the Hb affinity for oxygen. We therefore tested the PP compounds in a dose-dependent manner (0.5, 1, 2 mM) for their effect on Hb oxygen binding property. […] These findings confirmed that the potent in vitro activity previously seen in TD7 was at least conserved in the novel PP compounds.
Target sequence in this assay (P69905 2-142 limits assumed): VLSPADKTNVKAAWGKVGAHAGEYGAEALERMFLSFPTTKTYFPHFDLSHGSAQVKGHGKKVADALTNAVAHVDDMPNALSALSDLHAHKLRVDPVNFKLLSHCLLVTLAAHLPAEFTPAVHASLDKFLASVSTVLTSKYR
Target sequence in this assay (P68871 2-147 partner limits assumed): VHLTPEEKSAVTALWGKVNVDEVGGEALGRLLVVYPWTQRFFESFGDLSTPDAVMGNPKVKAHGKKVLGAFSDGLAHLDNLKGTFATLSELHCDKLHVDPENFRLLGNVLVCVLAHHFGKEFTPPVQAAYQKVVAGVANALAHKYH

[6] = target: T2, Hb; assay: Drug partitioning studies, fixed and unfixed Hb adducts in non-sickling AA blood; format: cell-based; design: Hemoglobin modification, studies using non-sickling AA blood; from tissue; host or cells: non-sickling (AA) human blood, red blood cells; details: 2 mM
In short: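 Non-sickling blood was incubated with test molecules and lysed either in water (unfixed) or in 50 mM sodium borohydride (fixed). Hb adducts were quantified by cation-exchange HPLC as a fraction of total Hb. The partitioning ratio is fixed over unfixed modification and reflects intracellular Hb binding after RBC membrane permeation.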
Target sequence in this assay (P69905 2-142 limits assumed): as the sequence (P69905 2-142 limits assumed) above
Target sequence in this assay (P68871 2-147 partner limits assumed): as the sequence (P68871 2-147 partner limits assumed) above

[7] = target: T2, Hb; assay: Hb modification (drug-adduct formation) in SS blood suspensions by cation-exchange HPLC; format: binding; design: Blood suspensions from subjects with homozygous SCD; from tissue; host or cells: blood suspensions (20% hematocrit) from donors with homozygous SCD; lysates of the treated red cells; details: 2 mM, 4 biological replicates
In short: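 Homozygous SCD blood at 20% hematocrit in Hemox buffer with glucose and BSA was incubated with compound (0-2 mM) 1 h at 37° C in air, then up to 2 h hypoxia (2.5% O2). Lysates, with or without 50 mM sodium borohydride reduction, were analysed by weak cation-exchange HPLC at A410 nm for Hb-drug adducts.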
Target sequence in this assay (P69905 2-142): as the sequence (P69905 2-142 limits assumed) above
Target sequence in this assay (P68871 with tags, fused parts or gaps E7V partner): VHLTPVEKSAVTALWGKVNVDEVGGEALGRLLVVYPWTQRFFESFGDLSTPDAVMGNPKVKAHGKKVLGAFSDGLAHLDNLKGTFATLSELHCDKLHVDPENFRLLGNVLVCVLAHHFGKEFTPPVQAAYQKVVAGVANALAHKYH

[8] = target: T2, Hb; assay: Time-dependent Hb-compound adduct formation (Hb modification) in normal whole blood; format: binding; design: Hemoglobin modification, studies using non-sickling AA blood; from tissue; host or cells: non-sickling (AA) human blood, red blood cells; details: 2 mM, normal adult blood, hematocrit 30%, 37° C.
Target sequence in this assay (P69905 2-142 limits assumed): as the sequence (P69905 2-142 limits assumed) above
Target sequence in this assay (P68871 2-147 partner limits assumed): as the sequence (P68871 2-147 partner limits assumed) above

Row | bioavailability [2] | SMILES | polymer destabilizing effect / sickle inhibition in anoxia (in words) [1] | modified Hb [3] [%] | inhibition at 500 µM ([4]; 0.5 mM) [%] | inhibition at 1000 µM ([4]; 1 mM) [%] | effect on Hb oxygen binding property (OEC) [5] | Fixed Adducts (%) ([6]; 6 biological replicates) | Unfixed Adduct (%) ([6]; 6 biological replicates) | Partitioning Ratio (%) ([6]; fixed relative to unfixed adducts) | Hb Modification (%) [7] [%] | loss of Hb modification activity at 24 hours [8] [%]
1 | not bioavailable | O=Cc1c(O)cccc1OCc1ccccc1 [Reference A, 2-(benzyloxy)-6-hydroxybenzaldehyde, reference compound] | exhibits potent polymer destabilizing effects | – | – | – | – | – | – | – | – | –
2 | – | COc1ccc(OCc2cccc(CO)n2)c(C=O)c1 [TD-7, reference compound] | – | 1.5±0.3 | 26 | 47 | relatively similar potency as most of the best PP compounds | 80.9 ± 2.5 | 73.5 ± 1.5 | 103.7 ± 7.5 | 72.5 | 45
